Laboratory results from the supplement of paper PMC10307832.

What was measured:
Test in all cases: relative viability (nuclei count vs DMSO), 5 days (fraction); higher = more cells survive
[1] = compound: CC(C)C[C@H](NC(=O)[C@H](Cc1ccccc1)NC(=O)c1cnccn1)B(O)O [Bortezomib] + C[C@]1(O)C[C@@H](c2nc(-c3ccc4ccc(-c5ccccc5)nc4c3)c3c(N)nccn32)C1 [Linsitinib] (partner 1 µM)
Method in brief: (§1)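 Relative viability is defined as nuclei in treated wells over nuclei in vehicle wells. Duplicate plates were run and medians reported. Lung cancer cell lines in 1536-well plates were dosed by pin tool one day after seeding, with one drug or with a fixed anchor-drug dose plus five library-drug doses (not always all listed) in √10 steps, and nuclei were counted after 5 days.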

[2] = compound: CC1=CC(=NN1)NC2=CC(=NC(=N2)/C=C/C3=CC=CC=C3)N4CCN(CC4)C + C[C@@H](Oc1cc(-c2cnn(C3CCNCC3)c2)cnc1N)c1c(Cl)ccc(F)c1Cl [Crizotinib] (partner 1 µM)
Method in brief: as §1

[3] = compound: CC(C)C[C@H](NC(=O)[C@H](Cc1ccccc1)NC(=O)c1cnccn1)B(O)O [Bortezomib] + CC(=O)Nc1cccc(-n2c(=O)n(C3CC3)c(=O)c3c(Nc4ccc(I)cc4F)n(C)c(=O)c(C)c32)c1 [Trametinib] (partner 0.02 µM)
Method in brief: as §1

[4] = compound: CC(C)C[C@H](NC(=O)[C@H](Cc1ccccc1)NC(=O)c1cnccn1)B(O)O [Bortezomib] + CC1(C)CCC(c2ccc(Cl)cc2)=C(CN2CCN(c3ccc(C(=O)NS(=O)(=O)c4ccc(N[C@H](CCN5CCOCC5)CSc5ccccc5)c(S(=O)(=O)C(F)(F)F)c4)cc3)CC2)C1 [Navitoclax] (partner 0.5 µM)
Method in brief: as §1

Row | Cell Line | relative viability ([1]; first compound 0.0002 µM) | relative viability ([1]; first compound 0.000632 µM) | relative viability ([1]; first compound 0.002 µM) | relative viability ([1]; first compound 0.006325 µM) | relative viability ([1]; first compound 0.02 µM) | relative viability ([2]; first compound 0.08 µM) | relative viability ([2]; first compound 0.253 µM) | relative viability ([2]; first compound 0.8 µM) | relative viability ([2]; first compound 2.53 µM) | relative viability ([2]; first compound 8 µM) | relative viability ([3]; first compound 0.0002 µM) | relative viability ([3]; first compound 0.000632 µM) | relative viability ([3]; first compound 0.002 µM) | relative viability ([3]; first compound 0.006325 µM) | relative viability ([3]; first compound 0.02 µM) | relative viability ([4]; first compound 0.0002 µM) | relative viability ([4]; first compound 0.000632 µM) | relative viability ([4]; first compound 0.002 µM) | relative viability ([4]; first compound 0.006325 µM) | relative viability ([4]; first compound 0.02 µM)
1 | BEN | 0.814 | 0.927 | 0.763 | 0.592 | 0.173 | 0.881 | 1.09 | 0.804 | 0.675 | 0.167 | 0.856 | 0.953 | 0.87 | 0.829 | 0.29 | 0.0276 | 0.0636 | 0.151 | 0.0617 | 0.0356
2 | NCI-H1915 | 1.13 | 1.13 | 1.01 | 1.07 | 0.0602 | 0.868 | 0.92 | 0.869 | 0.593 | 0.248 | 0.283 | 0.307 | 0.33 | 0.196 | 0.0537 | 0.676 | 0.764 | 0.799 | 0.0915 | 0.0811
3 | NCI-H2009 | 1.12 | 1.22 | 1.18 | 0.0695 | 0.058 | 1.06 | 0.94 | 1.02 | 0.534 | 0.22 | 0.322 | 0.223 | 0.256 | 0.0731 | 0.0528 | 1.16 | 1.1 | 1.15 | 0.0798 | 0.0607
4 | COR-L23 | 0.994 | 0.828 | 0.495 | 0.0469 | 0.0499 | 0.696 | 0.676 | 0.41 | 0.159 | 0.0747 | 0.478 | 0.586 | 0.704 | 0.0593 | 0.06 | 0.933 | 1.02 | 0.528 | 0.0681 | 0.0713
5 | NCI-H460 | 0.718 | 0.772 | 0.91 | 0.0249 | 0.0133 | 0.948 | 0.839 | 0.159 | 0.0358 | 0.0091 | 0.126 | 0.157 | 0.202 | 0.0768 | 0.0189 | 1.08 | 1.15 | 1.34 | 0.0699 | 0.0164
6 | HCC-827 | 0.913 | 0.949 | 0.821 | 0.896 | 0.141 | 0.91 | 0.999 | 0.877 | 0.636 | 0.381 | 0.515 | 0.555 | 0.417 | 0.218 | 0.141 | 1.05 | 1.03 | 0.768 | 0.979 | 0.0957
7 | NCI-H322M | 0.906 |  | 0.999 | 0.831 | 0.294 | 0.97 | 0.866 | 0.817 | 0.447 | 0.128 | 0.547 | 0.455 | 0.47 | 0.486 | 0.411 | 1.34 |  | 1.18 | 1.24 | 1.09
